This is an account of results in patent publication US11497819B2, “PSMA ligands for imaging and endoradiotherapy” (priority 2017, dated 2022).

One data set addresses T1, HSA (Homo sapiens, UniProt P02768).
T1 construct: purchased Daicel Chemical Industries / Chiral Technologies Europe (Illkirch, France)
In words: HSA binding on Chiralpak HSA column. Type of data set: in vitro ADME. The settings on record: after logarithmic plotting and calibration (n = 1). How it is done: HSA binding experiments were performed as previously described. […] For each run, 10 μL of the solution containing the inhibitor was injected into the RP-HPLC system and the retention time measured. […] Non-linear regression was established with OriginPro 2016G.

The subject of another data set is LNCaP-tumor. Further details: species or system CB-17 SCID mice. The settings on record: male, CB-17 SCID, mouse, in vivo, 85 min. The procedure:
All animal experiments were carried out in accordance with the general animal welfare regulations in Germany (Deutsches Tierschutzgesetz, approval #55.2-1-54-2532-71-13). For the tumor model, LNCaP cells (approx. 10^7 cells) were suspended in serum-free DMEM-F12 medium and Matrigel (1/1; v/v) (BD Biosciences, Germany) and inoculated onto the right shoulder of male, 6 to 8 weeks old CB-17 SCID mice (Charles River Laboratories, Sulzfeld, Germany). Animals were used after the tumor size reached 4 to 8 mm in diameter for experiments.
Imaging experiments were conducted using a Siemens Inveon small animal PET and the data analyzed by the associated Inveon Research Workplace software. Mice were anaesthetized with isoflurane and approx. 4.0 to 17 MBq of the ^68Ga-labeled compounds were injected via tail vein (approx. 150 to 300 μL). Dynamic imaging was carried out after on-bed injection for 90 min. The static blockade image was obtained after 1 h p.i. with 15 min acquisition time. PSMA-blockade was achieved by coinjection of 8 mg/kg of 2-PMPA-solution (PBS). All images were reconstructed using an OSEM3D algorithm without […] and attenuation correction.

In a further data set the test system is LNCaP cells. In words: Internalization into LNCaP cells, relative cellular uptake to ([^125I]I-BA)KuE. Type of data set: cell-based. The settings on record: c = 1.0 nM ^177Lu-labeled inhibitor, 37° C., 60 min, corrected for non-specific binding (10 μM 2-PMPA), mean ± SD (n = 3).
The target of a further data set is T2, PSMA (Homo sapiens, UniProt Q04609).
T2 construct: host or cells: LNCaP cells
In words: Competitive binding assay (IC50) on LNCaP cells with ([^125I]I-BA)KuE as radioligand. Conditions: LNCaP cells 1.5*10^5 cells/well, 1 h, 4° C., HBSS + 1% BSA, radioligand ([^125I]I-BA)KuE; mean ± SD (n = 3). How it is done:
One day (24 h±2 h) prior to all experiments with LNCaP cells, the cultivated cells were harvested using a mixture of trypsin/ethylendiaminetetraacetate (0.05%/0.02%) and PBS and centrifuged. After centrifugation, the supernatant was disposed and the cell pellet resuspended in culture medium. Afterwards, cells were counted with a hemocytometer (Neubauer) and seeded in 24-well plates.
After removal of the culture medium, the cells were treated once with HBSS (500 μL, Hank's balanced salt solution, Biochrom, Berlin, Germany, with addition of 1% BSA) and left 15 min on ice for equilibration in HBSS (200 μL, 1% BSA). […] All experiments were performed at least three times for each concentration. After 60 min incubation on ice, the experiment was terminated by removal of the medium and consecutive rinsing with HBSS (200 μL). The media of both steps were combined in one fraction and represent the amount of free radioligand. Afterwards, the cells were lysed with NaOH (250 μL, 1.0 m) and united with the HBSS (200 μL) of the following washing step. Quantification of bound and free radioligand was accomplished in a γ-counter.

Molecules are shown by their SMILES.

T1 sequence (P02768 25-609): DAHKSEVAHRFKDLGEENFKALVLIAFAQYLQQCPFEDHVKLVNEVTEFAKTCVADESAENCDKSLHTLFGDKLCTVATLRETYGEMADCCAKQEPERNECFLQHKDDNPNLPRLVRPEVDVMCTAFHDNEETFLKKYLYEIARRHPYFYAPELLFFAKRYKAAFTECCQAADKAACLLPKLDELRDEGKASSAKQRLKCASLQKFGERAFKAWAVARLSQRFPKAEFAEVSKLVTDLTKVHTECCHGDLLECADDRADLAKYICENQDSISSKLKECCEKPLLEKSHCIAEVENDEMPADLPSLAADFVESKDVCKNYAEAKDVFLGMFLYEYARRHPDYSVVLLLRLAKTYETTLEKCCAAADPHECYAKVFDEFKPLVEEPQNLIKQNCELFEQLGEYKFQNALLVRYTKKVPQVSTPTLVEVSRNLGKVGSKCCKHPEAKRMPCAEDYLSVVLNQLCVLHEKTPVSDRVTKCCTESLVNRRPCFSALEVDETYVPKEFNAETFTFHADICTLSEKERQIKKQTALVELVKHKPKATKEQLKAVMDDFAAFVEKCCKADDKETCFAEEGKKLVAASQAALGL
T2 sequence (Q04609 whole entry): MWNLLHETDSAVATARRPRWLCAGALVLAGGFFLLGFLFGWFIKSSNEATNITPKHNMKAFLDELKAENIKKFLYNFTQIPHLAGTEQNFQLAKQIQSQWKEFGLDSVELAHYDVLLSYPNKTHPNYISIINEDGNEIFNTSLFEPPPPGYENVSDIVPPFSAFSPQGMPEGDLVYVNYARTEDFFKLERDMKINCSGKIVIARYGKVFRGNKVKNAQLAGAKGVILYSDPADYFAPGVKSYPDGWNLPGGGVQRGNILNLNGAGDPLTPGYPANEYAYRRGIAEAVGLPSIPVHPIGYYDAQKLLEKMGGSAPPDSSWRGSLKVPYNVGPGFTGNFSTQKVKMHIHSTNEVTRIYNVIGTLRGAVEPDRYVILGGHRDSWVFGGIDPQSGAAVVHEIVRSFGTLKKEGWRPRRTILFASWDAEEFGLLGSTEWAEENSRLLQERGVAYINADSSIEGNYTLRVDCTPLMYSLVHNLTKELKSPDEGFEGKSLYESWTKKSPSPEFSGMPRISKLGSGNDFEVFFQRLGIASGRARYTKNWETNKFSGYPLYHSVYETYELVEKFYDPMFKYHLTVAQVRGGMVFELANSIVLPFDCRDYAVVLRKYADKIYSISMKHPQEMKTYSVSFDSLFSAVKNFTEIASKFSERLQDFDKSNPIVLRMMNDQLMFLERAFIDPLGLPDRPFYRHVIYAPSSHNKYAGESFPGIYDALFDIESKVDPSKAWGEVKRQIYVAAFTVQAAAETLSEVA

For the molecule `O=C(O)CC[C@H](NC(=O)N[C@@H](CCCCNC(=O)CCCCC[C@H](NC(=O)c1ccc([N+](=O)[O-])cc1[N+](=O)[O-])C(=O)NCCCC[C@@H](NC(=O)[C@@H](Cc1ccccc1)NC(=O)[C@@H](Cc1ccc(O)c(I)c1)NC(=O)CCC(C(=O)O)N1CCN(CC(=O)O)CCN(CC(=O)O)CCN(CC(=O)O)CC1)C(=O)O)C(=O)O)C(=O)O` (stereo partly drawn) [PSMA-36, DOTAGA-y(3-I)fk(L-Asu[KuE]-2,4-DNBA)], the “HSA (albumin binding)” value on HSA stood at 82.5%. In addition, in the data set on LNCaP-tumor, the “tumor uptake (PET)” value was 3.5 % ID/mL. In addition, in the data set on LNCaP cells, the Internalization is on record as 189.8 ± 37.5%.
One may read the IC50 as the midpoint of a concentration-inhibition curve. In the case of `O=C(O)CC[C@H](NC(=O)N[C@@H](CCCCNC(=O)[C@H](Cc1ccc2ccccc2c1)NC(=O)[C@H]1CC[C@H](CNC(=O)CN2CCN(CC(=O)O)CCN(CC(=O)O)CCN(CC(=O)O)CC2)CC1)C(=O)O)C(=O)O` [PSMA-617, reference compound], the half-maximal inhibitory concentration (IC50) on PSMA is 3.8 ± 1.7 nM. Besides, at HSA, the “HSA (albumin binding)” value is on record as 74.7%. In the data set on LNCaP cells, the Internalization is 160.1 ± 1.5%.
